Laboratory results as given in patent US20090299036A1, “AGENT FOR PREVENTING ARTERIOSCLEROSIS, AGENT FOR SUPPRESSING VASCULAR INTIMAL THICKENING AND AGENT FOR IMPROVING VASCULAR ENDOTHELIAL FUNCTION” (Calpis Co, Ltd, priority 2006, published 2009).

Legend:
[1] = tested on: arteriosclerosis; settings: Non-patent Publication 5; cited from earlier work
[2] = tested on: thoracic aorta of Wistar rats; test: Endothelium-dependent vasodilator response of aorta ring from L-NAME-treated rats (Magnus apparatus); format: in vivo, rat
Procedure: Wistar rats (7 weeks of age, male) as the test animals were acclimatized for one week. A nitric oxide synthesis inhibitor, NG-nitro-L-arginine methyl ester hydrochloride (L-NAME, manufactured by SIGMA-ALDRICH CORP.) was dissolved in drinking water at the concentration of 1 g/L, and similarly, L-NAME and Val-Pro-Pro synthesized above at 1 g/L and 0.3 g/L, respectively, and L-NAME and Ile-Pro-Pro synthesized above at 1 g/L and 0.3 g/L, respectively. The rats were allowed free access to the prepared drinking water for one week. As a control, only the drinking water without L-NAME dissolved therein was given to a non-treatment group.
Then, the rats were subjected to fatal exsanguination under diethyl ether anesthesia. The thoracic aorta was taken out, cut into 2 mm long, and made into an aorta ring. The ring was set in a Magnus apparatus (product name “micro tissue organ bath MTOB-1Z”, manufactured by LABO SUPPORT CO., LTD.) filled with 5 ml of Tyrode's solution (composition: 158.3 mM of NaCl, 4.0 mM of KCl, 2.0 mM of CaCl2, […] of MaCl2, 0.42 mM of NaH2PO4, 10.0 mM of NaHCO3, and 5.6 mM of glucose; pH 7.4, 37±0.5° C.), and allowed to equilibrate with the resting tension of 2.0 g. The aorta ring was then allowed to constrict with 1 μM of phenylephrine. […] The degree of vasodilation by the response was determined as a ratio to the constriction with 1 μM of phenylephrine. […]

CCOC(=O)[C@H](CCc1ccccc1)N[C@@H](C)C(=O)N1CCC[C@H]1C(=O)O [enalapril]
arteriosclerosis inhibitory effect [1]: does not result in an arteriosclerosis inhibitory effect | Degree of vasodilation ([2]; drinking water for one week: L-NAME 1 g/L, peptide 0.3 g/L, enalapril 0.5 mg/L, 10 μM acetylcholine, ratio to constriction with 1 μM phenylephrine, group average): 31.6% | degree of vasodilation compared to the group given only L-NAME ([2]; given together with L-NAME): no significant difference
